These results are taken from publication PMC6600542 (Molecules, 2019).

Molecules are shown by their SMILES.

Assay [1] relates to normal human plasma. Nature of the assay: APTT clotting assay, normal human plasma. The format is biochemical. As to the method:
(§1) For the PT assay, thromboplastin-D was reconstituted according to the manufacturer’s directions and warmed to 37 °C. […] After incubation for 4 min at 37 °C, clotting was initiated by adding 100 μL of prewarmed 25 mM CaCl2 and the time to clotting was noted. […] To determine the in vitro effect on the APTT of deficient human plasmas, the APTT assay was repeated, using human plasmas deficient of factor VII (FVII), factor IX (FIX), FXI, or factor XII (FXII). […] The positive control used in APTT and PT assays was rivaroxaban, a clinically used FXa inhibitor. Under the conditions reported, rivaroxaban doubled the APTT and PT at concentrations of 0.123 ± 0.003 µM and 0.193 ± 0.043 µM, respectively.

Assay [2] deals with normal human plasma. Briefly: PT clotting assay, normal human plasma. Format: biochemical. The conditions noted are these: normal human plasma (text). How it is done:
as §1

Assay [3] has as its system normal human plasma. The conditions noted are these: cited from earlier work.

Turning to `O=S(=O)(O)CCO` [isethionic acid], the “effect on the APTT” value with normal human plasma [1] (normal human plasma, highest concentration tested of 33.3 mM) is given as “did not affect the APTT”.
As to `O=C(NC[C@H]1CN(c2ccc(N3CCOCC3=O)cc2)C(=O)O1)c1ccc(Cl)s1` [rivaroxaban], the “concentration to double the PT” value in the assay on normal human plasma [2] was 0.193 ± 0.043 µM. Also, in the assay with normal human plasma [1] (normal human plasma (text)), the “concentration to double the APTT” value came out at 0.123 ± 0.003 µM. Besides, the “effect on TT” value in the assay with normal human plasma [3] is “no effect on TT”.
